Measurements published in US10028973B2, “Using DNA methyltransferase inhibitors to treat calcific aorta valve disease” (Mayo Foundation for Medical Education and Research, priority 2014, dated 2018).

Tests used:
[1] = system: hypercholesterolemic mice; test: Chronic low-dose Decitabine treatment: progression of aortic valve calcification and stenosis (cusp separation distance, echocardiography); assay type: in vivo, mouse; conditions: FIG. 8
Procedure: FIG. 8 is a graph plotting cusp separation distance in control mice and in mice treated with DAC (0.1 mg/kg i.p., 2 days/week for 3 months). […] Echocardiographic evaluation of aortic valve function: Echocardiographic evaluation of aortic valve function is conducted as described elsewhere (Miller et al. 2009, supra; Hinton et al., Am J Physiol Heart Circ Physiol 294:[…]-2488, 2008; Barrick et al., Am J Physiol Heart Circ Physiol 297:[…]-75, 2009; and Miller et al., Circ Res 108:1392-1412, 2011). In brief, a Vevo 2200 small animal ultrasound unit is used to evaluate 1) cusp separation distance from M-mode images, 2) peak transvalvular blood velocity, and 3) color Doppler screening for evidence of aortic valve regurgitation. […] Short- and long-axis views of the left ventricle also are acquired to evaluate ventricular function (Berry et al., J Cardiovasc Magn Reson 11:27, 2009).

[2] = system: mouse aortic valves; test: Acute Decitabine treatment of mice with established CAVD: gene expression in aortic valve tissue by quantitative real-time RT-PCR; assay type: in vivo; conditions: ldlr−/−/apoB100/100 (LA) mice on Western diet 6 months, 0.5 or 1 mg/kg/day i.p. for 5 days
Procedure: FIG. 5 is a pair of graphs plotting the effects of DNMT inhibition with decitabine (DAC) on expression of the pro-osteogenic signaling genes, Runx2 and osteopontin (SPP1), in mouse aortic valves in vivo. DAC was administered using daily intraperitoneal injections at the doses indicated (mg/kg/day) for 5 days, and gene expression was measured using quantitative real-time RT-PCR and mRNA isolated from mouse aortic valve tissue.
FIG. 6 is a graph plotting the effects of DNMT inhibition with DAC on expression of the anti-osteogenic gene, FABP4 (a PPARγ target). DAC was administered using daily intraperitoneal injections at the doses indicated (mg/kg/day) for 5 days, and gene expression was measured using quantitative real-time RT-PCR and mRNA isolated from mouse aortic valve tissue.
To determine whether acute DNA methyltransferase inhibition promotes anti-calcific gene expression patterns in mice with established calcific aortic valve disease, ldlr^−/−/apoB^100/100 (LA) mice were placed on a Western diet for 6 months (which produces mild to moderate valvular dysfunction), and treated with vehicle or Decitabine (5-aza-2′-deoxycytidine; “DAC”) for 5 days (0.5 or 1 mg/kg/day, i.p.). Changes in cardiac and aortic valve function at 3 and 6 months are evaluated. […] The second group is used for semi-quantitative histological/immunohistochemical evaluation of aortic valve (n=10). The third group is used for genome-wide evaluation of gene expression using microarrays (n=20), and the fourth group is used for high-resolution μCT scanning for quantitation of calcium burden in aortic valve and root (n=15).
Quantitative Real-Time RT-PCR: Aortic valve cusps are dissected, and tissue is processed and stored using commercially available lysis buffer with β-mercaptoethanol (Miller et al., Am J Physiol Heart Circ Physiol 298:H1600-1607, 2010). Quantitative real-time RT-PCR studies confirming array-detected changes in gene expression are performed on a StepOne Plus instrument (Applied Biosystems).

[3] = system: pig aortic valve interstitial cells; test: Calcium deposition in aortic valve interstitial cells in vitro; assay type: cell-based; conditions: FIG. 7
Excerpt: FIG. 7 is a graph plotting the effects of DNMT inhibition with DAC calcium deposition in pig aortic valve interstitial cells in vitro.

With `Nc1ncn([C@H]2C[C@H](O)[C@@H](CO)O2)c(=O)n1` [Decitabine, 5-Aza-2′-deoxycytidine] the “progression of aortic valve stenosis (cusp separation distance)” value ([1]; 0.1 mg/kg i.p., 2 days/week for 3 months, larger cusp separation distance = improved valve function) was “slowed progression of aortic valve stenosis”, the “progression of aortic valve calcification and stenosis” value ([1]; low-dose, hypercholesterolemic mice in vivo) was “successfully slowed progression” and the Sp7 expression [2] was “dose-dependent reductions”. For the same compound, the Runx2 expression ([2]; FIG. 5) was “dose-dependent reductions”, the “PPARγ target gene expression (e.g., FABP4)” value ([2]; FIG. 6) was “increased PPARγ target gene expression” and the “calcification in aortic valve interstitial cells” value [3] was “reduced calcification”.
